Experimental data as given in patent US20070203114A1, “7,8,9,10-Tetrahydro-Imidazo [2,1-A] Isochinolines” (priority 2004, published 2007).

tested on: pentagastrin-stimulated acid secretion of the perfused rat stomach; assay: Secretion-inhibiting action on the perfused rat stomach (pentagastrin-stimulated acid secretion); format: in vivo; settings: anesthetized CD rat, female; dose 3 μmol/kg i.d. (intraduodenal); pentagastrin 1 μg/kg i.v. continuous infusion
Text: Testing of the Secretion-Inhibiting Action on the Perfused Rat Stomach
In Table A which follows, the influence of the compounds according to the invention on the pentagastrin-stimulated acid secretion of the perfused rat stomach after intraduodenal administration in vivo is shown.
The abdomen anesthetized rats (CD rat, female, 200-250 g; 1.5 g/kg i.m. urethane) was opened after tracheotomy by a median upper abdominal incision and a PVC catheter was fixed transorally in the esophagus and another via the pylorus such that the ends of the tubes just projected into the gastric lumen. The catheter leading from the pylorus led outward into the right abdominal wall through a side opening.
After thorough rinsing (about 50-100 ml), warm (37° C.) physiological NaCl solution was continuously passed through the stomach (0.5 ml/min, pH 6.8-6.9; Braun-Unita I). The pH (pH meter 632, glass electrode EA 147; φ=5 mm, Metrohm) and, by titration with a freshly prepared 0.01N NaOH solution to pH 7 (Dosimat 665 Metrohm), the secreted HCl were determined in the effluent in each case collected at an interval of 15 minutes.
The gastric secretion was stimulated by continuous infusion of 1 μg/kg (=1.65 ml/h) of i.v. pentagastrin (left femoral vein) about 30 min after the end of the operation (i.e. after determination of 2 preliminary fractions). The substances to be tested were administered intraduodenally in a 2.5 ml/kg liquid volume 60 min after the start of the continuous pentagastrin infusion.
The body temperature of the animals was kept at a constant 37.8-38° C. by infrared irradiation and heat pads (automatic, stepless control by means of a rectal temperature sensor).

SMILES | Inhibition of acid secretion [%]
Cc1nc2c3c(c(C(=O)N(C)C)cn2c1C)CCC(c1ccccc1)C3 (stereo not shown) [Example 3, 2,3-Dimethyl-9-phenyl-7,8,9,10-tetrahydro-imidazo[2,1-a]isoquinoline-6-carboxylic acid dimethylamide] | >40
Cc1nc2c3c(c(C(=O)N4CCCC4)cn2c1C)CCC(c1ccccc1)C3 (stereo not shown) [Example 4, (2,3-Dimethyl-9-phenyl-7,8,9,10-tetrahydro-imidazo[2,1-a]isoquinolin-6-yl)-pyrrolidin-1-yl-methanone] | >40
COCCNC(=O)c1cn2c(C)c(C)nc2c2c1CCC(c1ccccc1)C2 (stereo not shown) [Example 6, 2,3-Dimethyl-9-phenyl-7,8,9,10-tetrahydro-imidazo[2,1-a]isoquinoline-6-carboxylic acid (2-methoxy-ethyl)-amide] | >40
Cc1nc2c3c(c(C(=O)N4CCOCC4)cn2c1C)CCC(c1ccccc1)C3 (stereo not shown) [Example 7, (2,3-Dimethyl-9-phenyl-7,8,9,10-tetrahydro-imidazo[2,1-a]isoquinolin-6-yl)-morpholin-4-yl-methanone] | >40
CNC(=O)c1cn2c(C)c(C)nc2c2c1CCC(c1ccccc1)C2 (stereo not shown) [Example 8, 2,3-Dimethyl-9-phenyl-7,8,9,10-tetrahydro-imidazo[2,1-a]isoquinoline-6-carboxylic acid methylamide] | >40
COCc1cn2c(C)c(C)nc2c2c1CCC(c1ccccc1)C2 (stereo not shown) [Example 11, 6-Methoxymethyl-2,3-dimethyl-9-phenyl-7,8,9,10-tetrahydro-imidazo[2,1]isoquinoline] | >40

tested on: not given; assay: not given; settings: not given

SMILES | melting point
CCOC(=O)c1cn2c(C)c(C)nc2c2c1CCC(c1ccccc1)C2 (stereo not shown) [Example 1, 2,3-Dimethyl-9-phenyl-7,8,9,10-tetrahydro-imidazo[2,1-a]isoquinoline-6-carboxylic acid ethyl ester] | 165 to 167 °C
Cc1nc2c3c(c(C(=O)O)cn2c1C)CCC(c1ccccc1)C3 (stereo not shown) [Example 2, 2,3-Dimethyl-9-phenyl-7,8,9,10-tetrahydro-imidazo[2,1-a]isoquinoline-6-carboxylic acid] | 343 to 345 °C (dec.)
CNC(=O)c1cn2c(C)c(C)nc2c2c1CCC(c1ccccc1)C2 (stereo not shown) [Example 8, 2,3-Dimethyl-9-phenyl-7,8,9,10-tetrahydro-imidazo[2,1-a]isoquinoline-6-carboxylic acid methylamide] | 266 to 268 °C
Cc1nc2c3c(c(CO)cn2c1C)CCC(c1ccccc1)C3 (stereo not shown) [Example 10, (2,3-Dimethyl-9-phenyl-7,8,9,10-tetrahydro-imidazo[2,1-a]isoquinolin-6-yl)-methanol] | 290 to 292 °C
